From US10954228B2 (NATIONAL INSTITUTES OF HEALTH, UNITED STATES DEPARTMENT OF …, priority 2016, dated 2021) come the findings set out here.

The target in the assay is Human LDHA (Homo sapiens (Human), UniProt P00338). The assay is described as follows: human LDHA primary biochemical assay. Conditions: biochemical LDHA inhibitory activity, assay of Example 1; activity level classes defined in nM. The text has this: This example describes a human LDHA primary biochemical assay employed in the characterization of a compound of formula (I) in an embodiment of the invention.
Test compounds were placed in a Greiner Bio-One (Monroe, N.C.) 1536-well black solid bottom assay plate. 200 millimolar (mM) Tris HCl, pH 7.4, 100 micromolar (μM) EDTA and 0.01% TWEEN-20™, final concentration, was used as the assay buffer. The LDHA reagent was 2 nanomolar (nM) Human LDHA (Meridian Life Science, Inc., Memphis, Tenn.), final concentration, in assay buffer. The substrate reagent was 0.06 mM NADH and 0.2 mM sodium pyruvate, final concentration, in assay buffer. The resazurin/diaphorase coupling reagent was 0.037 mM resazurin and 0.133 milligrams per milliliter (mg/mL) diaphorase, final concentration, in assay buffer. The inhibition of LDHA activity was measured by fluorescence emission.
On to “2-(5-([1,1′-bi(cyclopropan)]-2-yl)-4- (3-fluoro-4-sulfamoylbenzyl)- 3-(3-((5-methylthiophen-2- yl)ethynyl)phenyl)-1H-pyrazol-1- yl)thiazole-4-carboxylic acid [Compound 134]”, for which the IC50 (in general, the midpoint of a concentration-inhibition curve) was 100 to 1000 nM.

`Cc1ccc(C#Cc2cccc(-c3nn(-c4nc(C(=O)O)cs4)c(C(C)C4CC4)c3Cc3ccc([S+](N)(=O)[O-])c(F)c3)c2)s1` (stereo not drawn) [Compound 116, 2-(5-(1-cyclopropylethyl)-4-(3-fluoro-4-sulfamoylbenzyl)-3-(3-((5-methylthiophen-2-yl)ethynyl)phenyl)-1H-pyrazol-1-yl)thiazole-4-carboxylic acid] gave an IC50 of 100 to 1000 nM.

In turn, `Cc1ccc(C#Cc2cccc(-c3nn(-c4nc(C(=O)O)cs4)c(C(C4CC4)C4CC4)c3Cc3ccc([S+](N)(=O)[O-])c(F)c3)c2)s1` [Compound 126, 2-(5-(dicyclopropylmethyl)-4-(3-fluoro-4-sulfamoylbenzyl)-3-(3-((5-methylthiophen-2-yl)ethynyl)phenyl)-1H-pyrazol-1-yl) thiazole-4-carboxylic acid] registered an IC50 of 1000 to 57000 nM.

Compound `Cc1ccc(C#Cc2cccc(-c3nn(-c4nc(C(=O)O)cs4)c(C(C)(C)C4CC4)c3Cc3ccc([S+](N)(=O)[O-])c(F)c3)c2)s1` [Compound 128, 2-(5-(2-cyclopropylpropan-2-yl)-4-(3-fluoro-4-sulfamoylbenzyl)-3-(3-((5-methylthiophen-2-yl)ethynyl)phenyl)-1H-pyrazol-1-yl) thiazole-4-carboxylic acid] registered an IC50 of 100 to 1000 nM.

As for `Cc1ccc(C#Cc2cccc(-c3nn(-c4nc(B(O)O)cs4)c(CC4CC4)c3Cc3ccc(S(N)(=O)=O)c(F)c3)c2)s1` [Compound 135, (2-(5-(cyclopropylmethyl)-4-(3-fluoro-4-sulfamoylbenzyl)-3-(3-((5-methylthiophen-2-yl)ethynyl)phenyl)-1H-pyrazol-1-yl)thiazol-4-yl)boronic acid], the IC50 was in the range of 1000 to 57000 nM.

The compound `NS(=O)(=O)c1ccc(Cc2c(-c3ccc(F)c(-c4ccc(F)c(F)c4)c3)nn(-c3nc(C(=O)O)cs3)c2CC2CC2)cc1F` [Compound 136, 2-(5-(cyclopropylmethyl)-4-(3-fluoro-4-sulfamoylbenzyl)-3-(3′,4′,6-trifluoro-[1,1′-biphenyl]-3-yl)-1H-pyrazol-1-yl)thiazole-4-carboxylic acid] gave a 50% inhibitory concentration (IC50) below 100 nM.

As for `CC(=O)c1cc(-c2nn(-c3nc(C(=O)O)cs3)c(CC3CC3)c2Cc2ccc(S(N)(=O)=O)c(F)c2)ccc1F` [Compound 140, 2-(3-(3-acetyl-4-fluorophenyl)-5-(cyclopropylmethyl)-4-(3-fluoro-4-sulfamoylbenzyl)-1H-pyrazol-1-yl)thiazole-4-carboxylic acid], the IC50 is below 100 nM.

As to `NS(=O)(=O)c1ccc(Cc2c(-c3ccc(F)c(C4=CCCO4)c3)nn(-c3nc(C(=O)O)cs3)c2CC2CC2)cc1F` [Compound 148, 2-(5-(cyclopropylmethyl)-3-(3-(4,5-dihydrofuran-2-yl)-4-fluorophenyl)-4-(3-fluoro-4-sulfamoylbenzyl)-1H-pyrazol-1-yl)thiazole-4-carboxylic acid], the IC50 is below 100 nM.

For the compound `NS(=O)(=O)c1ccc(Cc2c(-c3ccc(F)c(NC(=O)c4ccccc4)c3)nn(-c3nc(C(=O)O)cs3)c2CC2CC2)cc1F` [Compound 152, 2-(3-(3-benzamido-4-fluorophenyl)-5-(cyclopropylmethyl)-4-(3-fluoro-4-sulfamoylbenzyl)-1H-pyrazol-1-yl)thiazole-4-carboxylic acid], the IC50 was below 100 nM.

On to `N[S+](=O)([O-])c1ccc(Cc2c(-c3ccc(F)c(C(=O)N4CCCC4)c3)nn(-c3nc(C(=O)O)cs3)c2CC2CC2)cc1F` [Compound 154], for which the IC50 was below 100 nM.

In the case of `CC(C)N1CC2(CN(c3cc(-c4nn(-c5nc(C(=O)O)cs5)c(CC5CC5)c4Cc4ccc(S(N)(=O)=O)c(F)c4)ccc3F)C2)C1` [Compound 158, 2-(5-(cyclopropylmethyl)-3-(4-fluoro-3-(6-isopropyl-2,6-diazaspiro[3.3]heptan-2-yl)phenyl)-4-(3-fluoro-4-sulfamoylbenzyl)-1H-pyrazol-1-yl)thiazole-4-carboxylic acid], the IC50 is below 100 nM.

Regarding `NS(=O)(=O)c1ccc(Cc2c(-c3ccc(F)c(-c4ncc[nH]4)c3)nn(-c3nc(C(=O)O)cs3)c2CC2CC2)cc1F` [Compound 159, 2-(5-(cyclopropylmethyl)-3-(4-fluoro-3-(1H-imidazol-2-yl)phenyl)-4-(3-fluoro-4-sulfamoylbenzyl)-1H-pyrazol-1-yl)thiazole-4-carboxylic acid], the IC50 was below 100 nM.

As to `NS(=O)(=O)c1ccc(Cc2c(-c3ccc(F)c(-c4nc5ccccc5[nH]4)c3)nn(-c3nc(C(=O)O)cs3)c2CC2CC2)cc1F` [Compound 160, 2-(3-(3-(1H-benzo[d]imidazol-2-yl)-4-fluorophenyl)-5-(cyclopropylmethyl)-4-(3-fluoro-4-sulfamoylbenzyl)-1H-pyrazol-1-yl)thiazole-4-carboxylic acid], the IC50 is below 100 nM.

`Cc1ncc(-c2cc(-c3nn(-c4nc(C(=O)O)cs4)c(CC4CC4)c3Cc3ccc(S(N)(=O)=O)c(F)c3)ccc2F)[nH]1` [Compound 161, 2-(5-(cyclopropylmethyl)-3-(4-fluoro-3-(2-methyl-1H-imidazol-5-yl)phenyl)-4-(3-fluoro-4-sulfamoylbenzyl)-1H-pyrazol-1-yl)thiazole-4-carboxylic acid] had an IC50 below 100 nM.

Consider `Cc1ccc(C#Cc2cccc(-c3nn(-c4nc(C(N)=O)cs4)c(CC4CC4)c3Cc3ccc(S(N)(=O)=O)c(F)c3)c2)s1` [Compound 163, 2-(5-(cyclopropylmethyl)-4-(3-fluoro-4-sulfamoylbenzyl)-3-(3-((5-methylthiophen-2-yl)ethynyl)phenyl)-1H-pyrazol-1-yl)thiazole-4-carboxamide], for which the IC50 was in the range of 1000 to 57000 nM.

As for `Cc1cc(-c2cccc(-c3nn(-c4nc(C(=O)O)cs4)c(CC4CC4)c3Cc3ccc(S(N)(=O)=O)c(F)c3)c2)ccc1Cl` [Compound 170, 2-(3-(4′-chloro-3′-methyl-[1,1′-biphenyl]-3-yl)-5-(cyclopropylmethyl)-4-(3-fluoro-4-sulfamoylbenzyl)-1H-pyrazol-1-yl)thiazole-4-carboxylic acid], the IC50 lay in the range of 1000 to 57000 nM.

For `NS(=O)(=O)c1ccc(Cc2c(-c3cccc(-c4ccc(C5CC5)c(F)c4)c3)nn(-c3nc(C(=O)O)cs3)c2CC2CC2)cc1F` [Compound 171, 2-(3-(4′-cyclopropyl-3′-fluoro-[1,1′-biphenyl]-3-yl)-5-(cyclopropylmethyl)-4-(3-fluoro-4-sulfamoylbenzyl)-1H-pyrazol-1-yl)thiazole-4-carboxylic acid], the IC50 was 1000 to 57000 nM.

In the case of `COc1ccc(-c2cccc(-c3nn(-c4nc(C(=O)O)cs4)c(CC4CC4)c3Cc3ccc(S(N)(=O)=O)c(F)c3)c2)cc1Cl` [Compound 172, 2-(3-(3′-chloro-4′-methoxy-[1,1′-biphenyl]-3-yl)-5-(cyclopropylmethyl)-4-(3-fluoro-4-sulfamoylbenzyl)-1H-pyrazol-1-yl)thiazole-4-carboxylic acid], the IC50 fell in the range of 100 to 1000 nM.

On to `Cc1ccc(C#Cc2cccc(-c3nn(-c4nc(C(=O)NS(C)(=O)=O)cs4)c(CC4CC4)c3Cc3ccc(S(N)(=O)=O)c(F)c3)c2)s1` [Compound 180, 2-(5-(cyclopropylmethyl)-4-(3-fluoro-4-sulfamoylbenzyl)-3-(3-((5-methylthiophen-2-yl)ethynyl)phenyl)-1H-pyrazol-1-yl)-N-(methylsulfonyl)thiazole-4-carboxamide], for which the IC50 was in the range of 1000 to 57000 nM.

The compound `Cc1ccc(C#Cc2cccc(-c3nn(-c4nc(CO)cs4)c(CC4CC4)c3Cc3ccc(S(N)(=O)=O)c(F)c3)c2)s1` [Compound 181, 4-((5-(cyclopropylmethyl)-1-(4-(hydroxymethyl)thiazol-2-yl)-3-(3-((5-methylthiophen-2-yl)ethynyl)phenyl)-1H-pyrazol-4-yl)methyl)-2-fluorobenzenesulfonamide] gave an IC50 above 57000 nM.

Compound `CCc1cc(-c2cccc(-c3nn(-c4nc(C(=O)O)cs4)c(CC4CC4)c3Cc3ccc(S(N)(=O)=O)c(F)c3)c2)ccc1OC` [Compound 182, 2-(5-(cyclopropylmethyl)-3-(3′-ethyl-4′-methoxy-[1,1′-biphenyl]-3-yl)-4-(3-fluoro-4-sulfamoylbenzyl)-1H-pyrazol-1-yl)thiazole-4-carboxylic acid] came in with an IC50 of 100 to 1000 nM.

Regarding `NS(=O)(=O)c1ccc(Cc2c(-c3cccc(-c4ccc(C5CC5)cc4)c3)nn(-c3nc(C(=O)O)cs3)c2CC2CC2)cc1F` [Compound 183, 2-(3-(4′-cyclopropyl-[1,1′-biphenyl]-3-yl)-5-(cyclopropylmethyl)-4-(3-fluoro-4-sulfamoylbenzyl)-1H-pyrazol-1-yl)thiazole-4-carboxylic acid], the IC50 is below 100 nM.

Take `NS(=O)(=O)c1ccc(Cc2c(-c3cccc(-c4ccc(C5CCC5)cc4)c3)nn(-c3nc(C(=O)O)cs3)c2CC2CC2)cc1F` [Compound 184, 2-(3-(4′-cyclobutyl-[1,1′-biphenyl]-3-yl)-5-(cyclopropylmethyl)-4-(3-fluoro-4-sulfamoylbenzyl)-1H-pyrazol-1-yl)thiazole-4-carboxylic acid]: the IC50 is 100 to 1000 nM.

On to `Cc1cc(-c2cc(-c3nn(-c4nc(C(=O)O)cs4)c(CC4CC4)c3Cc3ccc(S(N)(=O)=O)c(F)c3)ccc2F)ccc1Cl` [Compound 185, 2-(3-(4′-chloro-6-fluoro-3′-methyl-[1,1′-biphenyl]-3-yl)-5-(cyclopropylmethyl)-4-(3-fluoro-4-sulfamoylbenzyl)-1H-pyrazol-1-yl)thiazole-4-carboxylic acid], for which the IC50 lay within 100 to 1000 nM.
